Test results as given in patent US11679107B2 (Eisai R&D Management Co., Ltd., priority 2018, dated 2023).
Read-outs that look alike come from different tables or passages of the source.

Legend:
SF3b complexes = target: T1, SF3b complexes (Homo sapiens, UniProt O75533+Q7RTV0); assay: Scintillation proximity assay (SPA) with [3H]-labelled pladienolide probe; type: binding; details: SF3B1 (WT); geometric mean; read-out: SPA-ATS GMean IC50 (nM) SF3B1 (WT)
T1 construct: endogenous in cells; host or cells: Nuclear extracts; A HeLa S3 extract preparation is described for the in vitro splicing assay
How it was run: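 SF3b complexes captured from nuclear extracts on anti-SF3B1 antibody SPA beads; test compounds pre-incubated 30 min before 2.5 nM [3H]-pladienolide probe added, then 30 min incubation. Bound probe read by scintillation; values from non-linear regression of concentration–response curves.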

[1] = system: Ad2 variant pre-mRNAs spliced in HeLa S3 nuclear extracts; assay: In vitro splicing assay (IVS), RT-qPCR of spliced product; type: biochemical; details: geometric mean
How it was run: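 Read-out is one-step TaqMan RT-qPCR of spliced Ad2 mRNA with Ftz as reference, normalized to DMSO and fit by non-linear regression. Reactions held HeLa S3 nuclear extract, 2 ng Ad2-derived pre-mRNA and test compound, with 15 min preincubation. Splicing was started with ATP-containing activation buffer and run 90 min at 30 °C.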

[2] = system: NCI-H1568 cells (high MCL1); assay: Cell proliferation and viability, CellTiter-Glo, 72 hours; type: cell-based; details: for GI50: geometric mean; for CTGlo-ATS Mean MinResponse % 72 h NCIH1568.1: −100% cidal, 0% static, 100% maximal growth
How it was run: (§1)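 ATP luminescence (CellTiter-Glo) was measured 72 h after treatment with compound at 10 μM–100 pM (11 points, half-log) in 0.1% DMSO. The Panc line was grown in RPMI-1640 plus insulin and 15% FBS, the other in 10% FBS. Data were normalised to time zero and vehicle controls, where −100% is cidal and 0% static.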

[3] = system: Panc 05.04 cells (SF3b K700E mutant); assay: as above; type: cell-based; details: for CTGlo-ATS Mean MinResponse % 72 h PANC0504.1: −100% cidal, 0% static, 100% maximal growth; for GI50: geometric mean
How it was run: as §1

[4] = Ad2.1 pre-mRNA substrate, read-out: qPCR-IVS-ATS GMean IC50 (nM) Ad2.1
[5] = Ad2.2 pre-mRNA substrate, read-out: qPCR-IVS-ATS GMean IC50 (nM) Ad2.2
[6] = NCI-H1568, read-out: CTGlo-ATS GMean GI50 (nM) 72 h NCIH1568.1, NCIH1568.1 cells, 72 h
[7] = Panc 05.04, read-out: CTGlo-ATS GMean GI50 (nM) 72 h PANC0504.1, PANC0504.1 cells, 72 h

| Compound | IC50 (SF3b complexes) [nM] | IC50 [1, 4] [nM] | IC50 [1, 5] [nM] | GI50 [2, 6] [nM] | CTGlo-ATS Mean MinResponse % 72 h NCIH1568.1 ([2]; NCIH1568.1 cells, 72 h) [%] | CTGlo-ATS Mean MinResponse % 72 h PANC0504.1 ([3]; PANC0504.1 cells, 72 h) [%] | GI50 [3, 7] [nM] | GI50 ([2]; NCI-H1568, 72 h, read-out: CTGlo-ATS GMean GI50 (nM) 72 h NCIH1568.1, NCIH1568.1 cells, 72 h) [nM] | GI50 ([3]; Panc 05.04, 72 h, read-out: CTGlo-ATS GMean GI50 (nM) 72 h PANC0504.1, PANC0504.1 cells, 72 h) [nM] |
| --- | --- | --- | --- | --- | --- | --- | --- | --- | --- |
| C/C(=C\c1cc(F)cc(N2CCN(CCO)CC2)c1)[C@H]1OC(=O)C[C@H](O)CC[C@H](C)[C@@H](OC(=O)N(C)C2CCN(C)CC2)/C=C/[C@@H]1C [Compound 54] | 4.29 | 12.4 | 15.8 | 7.81 | −96.584 | −94.487 | 8.66 | – | – |
| C/C(=C\c1ccc2cnn(C)c2c1)[C@H]1OC(=O)C[C@H](O)CC[C@H](C)[C@@H](OC(=O)N2CCN(C)CC2)/C=C/[C@@H]1C [Compound 55] | 2.37 | 19900 | 45.3 | 21.2 | −57.557 | −85.478 | 17.2 | – | – |
| C/C(=C\c1cc(F)cc(N2CCOCC2=O)c1)[C@H]1OC(=O)C[C@H](O)CC[C@H](C)[C@@H](OC(=O)N2CCN(C)CC2)/C=C/[C@@H]1C [Compound 56] | 1.94 | 16.1 | 15.3 | 4.42 | −67.625 | −90.320 | 1.85 | – | – |
| C/C(=C\c1ccc(S(=O)(=O)NC2CCCC2)cc1F)[C@H]1OC(=O)C[C@H](O)CC[C@H](C)[C@@H](OC(=O)N2CCN(C)CC2)/C=C/[C@@H]1C [Compound 57] | 9.16 | > 25000 | 228 | 41.3 | −47.783 | −71.380 | 49.7 | – | – |
| C/C(=C\c1cc(F)cc(N2CCN(S(C)(=O)=O)CC2)c1)[C@H]1OC(=O)C[C@H](O)CC[C@H](C)[C@@H](OC(=O)N2CCN(C)CC2)/C=C/[C@@H]1C [Compound 58] | 6.54 | 30.1 | 22 | 7 | −70.067 | −91.132 | 6.97 | – | – |
| C/C(=C\c1cc(F)c2cn[nH]c2c1)[C@H]1OC(=O)C[C@H](O)CC[C@H](C)[C@@H](OC(=O)N2CCN(C)CC2)/C=C/[C@@H]1C [Compound 59] | 2.75 | 13600 | 46.1 | 14.5 | −44.526 | −95.512 | 17.5 | – | – |
| C/C(=C\c1cc(F)cc(-n2ccnc2)c1)[C@H]1OC(=O)C[C@H](O)CC[C@H](C)[C@@H](OC(=O)N2CCN(C)CC2)/C=C/[C@@H]1C [Compound 60] | 2.99 | > 25000 | 55.5 | 29.9 | −42.456 | −87.159 | 26.7 | – | – |
| C/C(=C\c1cc(F)cc(N2CCOCC2)c1)[C@H]1OC(=O)C[C@H](O)CC[C@@](C)(O)[C@@H](OC(=O)N2CCN(C)CC2)/C=C/[C@@H]1C [Compound 61] | 13.5 | > 25000 | 114 | – | −38.996 | −93.599 | – | 46.8 | 42 |
| C/C(=C\c1cc(F)cc(N2CCOCC2)c1)[C@H]1OC(=O)C[C@H](O)CC[C@@](C)(O)[C@@H](OC(=O)N2CCC(N3CCCCC3)CC2)/C=C/[C@@H]1C [Compound 62] | 7.86 | 587 | 52.9 | 54.9 | −57.446 | −94.536 | 40.5 | – | – |
| C/C(=C\c1cc(F)cc(N2CCOCC2)c1)[C@H]1OC(=O)C[C@@H](O)CC[C@@](C)(O)[C@@H](OC(=O)N2CCC(N3CCCCC3)CC2)/C=C/[C@@H]1C [Compound 63] | 12.3 | 18800 | 52 | 39.3 | −50.769 | −96.440 | 41.2 | – | – |
